Data on one compound can be found in patent US20220047569A1, “METHOD AND COMPOUND FOR USE, IN TREATING AND/OR PREVENTING NETOSIS” (Jubilant EpiPad LLC, priority 2020, published 2022).

SMILES strings stand for the structures.

One data set relates to 4T1 cells. In words: Murine breast cancer efficacy model, 4T1 allograft. In kind it is in vivo, Balb/C female mice. To be noted: for TGI (percent tumor growth inhibition): BID, PO, day 14, 4T1. How it is done:
PAD4 is highly expressed in malignant tumours of various cell types, Here, the mouse mammary carcinoma of 4T1 and EMT6 cells were used as an experimental model. Mouse 4T1, and EMT-6, a breast cancer cell line was sourced from American Type Culture Collection (ATCC), USA. Cells were grown according to the product information. To establish allografts, the cells were harvested by trypsinization when they reached around 70 to 80% confluence. After harvesting, Balb/C female mice (7-8 weeks) were implanted with 4T1 (1 million cells/site) and EMT-6 (0.5 million cells/site) subcutaneously in the dorsal right flank of mice using a 1 mL BD syringe attached to a 24-gauge needle. When the tumors became palpable tumor measurement was initiated and at an approximate tumor volume of ˜110 and 93 mm3, respectively. Animals were randomized into different treatment groups keeping tumor volume and the number of animals/group similar across the groups and compound 143 treatment was initiated. The procedures involving the care and use of animals in the study was reviewed and approved by the Institutional Animal Care and Use Committee (IAEC/JDC/2021/246R) prior to conduct. During the study, the care and use of animals was in accordance with the principles outlined in the Guide for the Care and Use of Laboratory Animals, 8th Edition, 2010 (National Research Council) and every effort was made to minimize suffering. The animals were acclimatized for 7 days prior to experimental use. Mice were caged with free access to food and fresh water in a temperature-controlled room (22° C.-24° C.) on a 12 h light/dark cycle.
(§1) Tumor dimensions (length and breadth) were measured on days 1 (animal randomization based on tumor volume) and thrice weekly thereafter until study termination.
Tumor volumes were calculated using the formula (b2*1)*0.52 where l=length, b=breadth (Dusan Djokovic et al., BMC Cancer, 2010, 10:641).
The percent tumor growth inhibition (% TGI) as a function of anti-tumor efficacy were computed with respect to untreated vehicle control by comparing to the tumor volumes of day 1. […]

Another data set relates to EMT-6 cells. The experiment in a line: Murine breast cancer efficacy model, EMT-6 allograft. The data set is classed as in vivo, Balb/C female mice. How it is done: PAD4 is highly expressed in malignant tumours of various cell types, Here, the mouse mammary carcinoma of 4T1 and EMT6 cells were used as an experimental model. Mouse 4T1, and EMT-6, a breast cancer cell line was sourced from American Type Culture Collection (ATCC), USA. Cells were grown according to the product information. To establish allografts, the cells were harvested by trypsinization when they reached around 70 to 80% confluence. After harvesting, Balb/C female mice (7-8 weeks) were implanted with 4T1 (1 million cells/site) and EMT-6 (0.5 million cells/site) subcutaneously in the dorsal right flank of mice using a 1 mL BD syringe attached to a 24-gauge needle. When the tumors became palpable tumor measurement was initiated and at an approximate tumor volume of ˜110 and 93 mm3, respectively. Animals were randomized into different treatment groups keeping tumor volume and the number of animals/group similar across the groups and compound 143 treatment was initiated. […]
as §1
Tumor volumes were calculated using the formula (b2*1)*0.52 where l=length, b=breadth (Dusan Djokovic et al., BMC Cancer, 2010, 10:641). […]

Data set [1] deals with Bleomycin (BLM)-induced mice fibrosis. The experiment in a line: Bleomycin induced lung fibrosis model. In kind it is in vivo, C57BL/6 male mice. As to conditions: 50 mg/kg, PO, BID. From the text:
Bleomycin (BLM)-induced mice fibrosis is a well-established animal model used to study pathogenesis of lung fibrosis and to estimate the potential anti-fibrotic agents. C57BL/6 male mice at 6-8 weeks of age were purchased from vivo biotech India (under the license from Taconic). The procedures involving the care and use of animals in the study was reviewed and approved by the Institutional Animal Care and Use Committee (IAEC/JDC/2018-161R) prior to conduct. During the study, the care and use of animals was in accordance with the principles outlined in the Guide for the Care and Use of Laboratory Animals, 8th Edition, 2010 (National Research Council) and every effort was made to minimize suffering. The animals were acclimatized for 7 days prior to experimental use. Mice were caged with free access to food and fresh water in a temperature-controlled room (22° C.-24° C.) on a 12 h light/dark cycle. Pulmonary fibrosis was induced by invasive method in animals using single intra-tracheal administration of 50 μg bleomycin prepared in 50 μL of saline under isoflurane anaesthesia. […] Animals were monitored and evaluated for their body weight loss. […] Fibronectin was measured as a PD biomarker by RT-qPCR and fold change in mRNA level was calculated after normalizing to GAPDH. […] The Modified Ashcroft Index score was determined for the vehicle-treated control mice and the test compound treated mice.

As to `N[C@@H]1CCCN(C(=O)c2cc3c4c(c2)nc(-c2cc5cccc(Cl)c5n2CC2CC2)n4CCO3)C1` [Compound 143, (R)-(3-aminopiperidin-1-yl)(2-(7-chloro-1-(cyclopropylmethyl)-1H-indol-2-yl)-3,4-dihydro-5-oxa-1,2a-diazaacenaphthylen-7-yl)methanone], the “TGI (percent tumor growth inhibition)” value in the data set with 4T1 cells (25 mg/kg) is given as 24.3%; in the data set on 4T1 cells (50 mg/kg), 48.8%; in the data set on EMT-6 cells (50 mg/kg, BID, PO, day 13, EMT-6), 42.6%. The Body weight changes entry was “no significant body weight changes” in the data set on 4T1 cells (4T1 bearing mice, BID PO for 14 days) and “no significant body weight changes” with EMT-6 cells (EMT-6 bearing mice, BID PO for 13 days). The Lung weight entry in data set [1] (day 0 to 14, prophylactic) is “reduction in lung weight comparable to standard of care Nintedanib”. In addition, the “Fibronectin mRNA” value in data set [1] (lung, RT-qPCR normalized to GAPDH) is given as “stronger reduction of fibronectin mRNA as compared to Nintedanib”.
